Measured values: article PMC10671052, “Naphthyl-Substituted Indole and Pyrrole Carboxylic Acids as Effective Antibiotic Potentiators—Inhibitors of Bacterial Cystathionine γ-Lyase” (International Journal of Molecular Sciences, 2023)
Where two headings read alike, the source gives them in different places.

Key:
in vitro = settings: simulated gi fluid
Method: A test compound (final concentration 10 μM) was incubated at 37 °C in SGF, SIF, or human plasma for 2, 2, or 4 h, respectively. 100 μL aliquots were taken from each sample and 300 μL of acetonitrile containing an internal standard was added. […] All compounds were tested in triplicate. The percentage of a remaining compound after incubation was determined based on the chromatographic peak area of the sample after incubation and that of time zero (freshly prepared and injected) sample.

[1] = molecular target: S. aureus cystathionine-γ-lyase (bCSE) (Staphylococcus aureus, UniProt A0A0H3K724); assay: IC50 assay: inhibition of H2S production by purified bCSE, WSP5 fluorescent probe; format: biochemical
Sequence of S. aureus cystathionine-γ-lyase (bCSE) (A0A0H3K724 entry or part of it): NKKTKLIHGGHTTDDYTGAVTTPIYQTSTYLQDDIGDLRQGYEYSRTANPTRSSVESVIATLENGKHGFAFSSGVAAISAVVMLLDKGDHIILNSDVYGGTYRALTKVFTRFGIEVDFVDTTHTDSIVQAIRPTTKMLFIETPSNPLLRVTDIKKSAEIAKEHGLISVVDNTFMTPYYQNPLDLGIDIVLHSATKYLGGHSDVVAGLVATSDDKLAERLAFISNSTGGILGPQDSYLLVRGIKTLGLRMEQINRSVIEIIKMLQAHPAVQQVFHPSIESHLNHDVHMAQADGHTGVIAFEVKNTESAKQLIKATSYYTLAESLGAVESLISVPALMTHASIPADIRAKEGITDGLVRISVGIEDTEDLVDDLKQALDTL
Method: (§1) Fluorescence spectrophotometry-based inhibitory activity toward purified bCSE and hCSE was measured in a 96-well nonbinding black plate (Greiner, Kremsmunster, Austria) at 100 μL of the reaction mixture per well. bCSE and hCSE (0.02 μM) were preincubated in a thermoshaker (Biosan, Riga, Latvia) (30 °C, 300 rpm) for 40 min in 50 mM sodium phosphate buffer (pH 8.0), supplemented with 10 μM pyridoxal 5′-phosphate (Sigma-Aldrich, St. Louis, MO, USA), 0.1% of Tween 20 (Sigma-Aldrich, St. Louis, MO, USA), and 1.2 μM Washington State Probe-5 (Cayman Chemical, Ann Arbor, MI, USA) (excitation: 500 nm, emission: 530 nm) at different concentrations of a tested inhibitor. The reaction was initiated by the addition of 100 μM L-cysteine (TCI, Chennai, Tamil Nadu, India) in 50 mM sodium phosphate buffer pH 8.0 to the reaction mixture, and the enzymatic activity was monitored for 12 h using a CLARIOstar Plus instrument (BMG LABTECH GmbH, Ortenberg, Germany). The 100 µM L-cysteine concentration used in the experiments corresponds to the maximal reported intracellular concentration in bacteria. The data were normalized to the positive and negative controls, and IC50 values were obtained by fitting to a four-parameter sigmoidal curve (inhibitor vs. response, variable slope model) in GraphPad Prism 8 software (GraphPad by Dotmatics, Boston, MA, USA). Each experiment was conducted with 2–3 technical replicates. IC50 values were means of at least two independent experiments.
(§2) For the production of S. aureus cystathionine-γ-lyase (bCSE) and of human cystathionine-γ-lyase (hCSE), plasmids pSUMO:saCSE (Addgene # 54336) and pNIC28-Bsa4 (Addgene # 42365) were employed. Cultivation of a competent E. coli cell strain (Thermo Fisher Scientific, Waltham, MA, USA), transformed with a target plasmid, was carried out on a selective solid medium with kanamycin. Bacterial cells harboring the plasmid vector were cultured at 37 °C and 180 rpm until OD600 = 0.65. Then, isopropyl β-D1-thiogalactopyranoside (IPTG) was added to a final concentration of 1 mM. To obtain bCSE, the cells were cultured for 3.5 h at 37 °C; to obtain hCSE, the cells were cultured for 18–20 h at 25 °C. After centrifugation, cells were resuspended in a buffer composed of 50 mM Tris–HCl, at a pH of 8.0, and 300 mM sodium chloride. After that, the cells were lysed by ultrasonication, with a pulse duration of 15 s and an interval between pulses of 15 s. The amplitude of the ultrasonic vibrations was 50% of the maximum. After lysis, samples were centrifuged for 15 min (20,000× g at 4 ℃). The pH of the supernatant obtained after the centrifugation was adjusted to 7.5 by the addition of a 1 M solution of Tris–OH. Then, the test sample was subjected to filtration through a polyethersulfone membrane with a pore diameter of 0.22 μm.

[2] = molecular target: T1, human cystathionine-γ-lyase (hCSE) (Homo sapiens, UniProt P32929); assay: IC50 assay: inhibition of H2S production by purified hCSE, WSP5 fluorescent probe; format: biochemical; settings: for IC50: purified hCSE 0.02 μM, 100 μM L-cysteine, WSP5 probe, mean ± SD
T1 construct: His6-TEV (N, cleaved yes); host or cells: E. coli
T1 sequence (P32929 whole entry): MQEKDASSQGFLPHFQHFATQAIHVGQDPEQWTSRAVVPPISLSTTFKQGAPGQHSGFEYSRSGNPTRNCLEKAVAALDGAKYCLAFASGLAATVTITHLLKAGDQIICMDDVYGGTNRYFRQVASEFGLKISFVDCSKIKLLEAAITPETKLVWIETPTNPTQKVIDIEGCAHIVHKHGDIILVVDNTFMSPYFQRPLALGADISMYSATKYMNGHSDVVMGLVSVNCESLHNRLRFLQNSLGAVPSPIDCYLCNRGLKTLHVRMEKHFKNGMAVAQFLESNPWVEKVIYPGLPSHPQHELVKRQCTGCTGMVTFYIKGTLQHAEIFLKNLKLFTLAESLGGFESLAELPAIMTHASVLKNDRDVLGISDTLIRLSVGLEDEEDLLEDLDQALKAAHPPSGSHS
Method: as §1, §2

[3] = HEK293 cytotoxicity assay (Alamar Blue); format: cell-based; settings: human, HEK293, 72 h
Method: The HEK 293 cell line was obtained from the European Collection of Authenticated Cell Cultures (ECACC, cat. # 85120602, Salisbury, UK). The cells were grown in a monolayer culture in Dulbecco’s Modified Eagle’s Medium (DMEM) (PanEco, Moscow, Russia), supplemented with 2 mM L-glutamine, 1% of a penicillin/streptomycin solution (Capricorn Scientific, Ebsdorfergrund, Germany), and 10% of heat inactivated fetal bovine serum (HyClone, Cytiva, Marlborough, MA, USA) in a humidified atmosphere containing 5% of CO2 at 37 °C (Binder, Germany). For the assay, HEK 293 cells were seeded in a 96-well plate (Corning, NY, USA) in 100 μL of the complete culture medium, at a final density of 2 × 10^3 cells/well, and were cultured for 24 h for proper attachment. Subsequently, the medium was removed, and the cells were exposed to a tested inhibitor at different concentrations for 72 h in 100 μL of the fresh complete culture medium. The sensitivity of the cells to the compounds was detected using the vital dye Alamar Blue (Invitrogen, San Diego, CA, USA). The Alamar Blue assay was performed according to the procedure described by O’Brien et al.. After incubation with the tested bCSE inhibitors, 10 μL of the Alamar Blue reagent was added into each well, the cell culture plates were returned to the humidified incubator, and the fluorescence was read after 3 h. The plates were exposed to an excitation light of 545 nm wavelength, and emission at 600 nm was measured on the CLARIOstar Plus (BMG LABTECH GmbH, Ortenberg, Germany). To determine half-maximal cytotoxic concentration (CC50), a four-parameter sigmoidal curve model (GraphPad Prism 8 software) was fitted to the measurement data.

[4] = system: P. aeruginosa GIMC5016:PA1840/36/2015; assay: Susceptibility of isolate to main antimicrobial agents; format: cell-based
[5] = system: A. baumannii GIMC5509:ABT-52Ts19; assay: MIC of antibiotics alone and with potentiators, clinical isolate; settings: A. baumannii GIMC5509:ABT-52Ts19, no potentiator
Method: (§3) Overnight (ON) culture of a specific strain was grown in the liquid Luria–Bertani nutrient medium (LB broth, BD Difco) for 18 h at 37 °C, with agitation at 180 rpm using an Innova 44R orbital shaker (Eppendorf, Hamburg, Germany). After a certain period, 50 µL of the ON culture was transferred into 5 mL of the LB medium and grown for 3 h at 37 °C with agitation. Growth in the liquid medium was assessed by means of turbidity of the suspension, measured using a Densi-La-Meter II densitometer (Erba Lachema s.r.o., Brno, Czech Republic). Then, the bacterial suspension was diluted to the concentration 10^6 cells/mL with sterile LB and used as a seed culture [38, 39].
(§4) For the assessment of MICs, 96-well microtiter plates were utilized at 200 µL of a medium per well. Each well was filled with 100 µL of the seed culture. After that, 10 µL of a solution of each tested synthetic compound (potentiators) was added into each experimental well. Finally, 90 µL of twofold serial dilutions of an antibiotic in a sterile LB was added into individual wells.
(§5) As a positive control, we set up wells with 100 µL of the bacterial culture and 100 µL of the sterile LB medium. […] Negative-control wells contained 200 µL of the sterile medium. The plates were incubated in a thermostat for 18–20 h at 37 °C. The bacterial growth was assessed as optical density at 600 nm on a CLARIOstar microplate reader (BMG LABTECH GmbH, Ortenberg, Germany)).

[6] = system: P. aeruginosa GIMC5016:PA1840/36/2015; assay: as above; settings: P. aeruginosa GIMC5016:PA1840/36/2015, no potentiator
Method: as §3, §4, §5

[7] = IC50 (uM), bCSE enzymatic IC50, rounded, repeated in Table S14
[8] = IC50 (uM), bCSE enzymatic IC50, rounded, repeated in Table S15
[9] = IC50 biochemical assay bCSE, purified bCSE 0.02 μM, 100 μM L-cysteine, WSP5 probe, mean ± SD
[10] = read-out: IC50 biochemical assay hCSE
[11] = IC50 (uM), bCSE enzymatic IC50, rounded, repeated in Table S13

Question: With `COc1ccc2[nH]c([S+]([O-])Cc3ncc(C)c(OC)c3C)nc2c1` (stereo not shown) [Omeprazole, reference compound] as the compound, how does the “Stability in SIF, % Remaining at 2 h” value (in vitro; 2 h, 10 μM) read?
Answer: The value was 90.5%.

Question: What about the remaining at 2 h, 10 μM (in vitro; Stability in SGF) of the same compound?
Answer: The remaining at 2 h, 10 μM was less than 0.1%.

Question: What about the remaining at 2 h, 10 μM (in vitro; Stability in SIF) of the same compound?
Answer: Its remaining at 2 h, 10 μM is 90.5 ± 10%.

Question: What does the source list for `O=C(O)c1ccc2ccn(Cc3ccc4ccccc4c3)c2c1` [Compound 3b]?
Answer: IC50 [1, 7]: 141 µM; IC50 [1, 8]: 141 µM; IC50 [1, 9]: 148 ± 46.4 µM; IC50 [2, 10]: > 500 µM; CC50 at 72 h ([3]; HEK293 cells): 528 ± 47.1 µM

Question: Which “susceptibility of isolate (Sensitive to / Resistant to)” value [4] does the source give for `NCC[C@H](O)C(=O)N[C@@H]1C[C@H](N)[C@@H](O[C@H]2O[C@H](CN)[C@@H](O)[C@H](O)[C@H]2O)[C@H](O)[C@H]1O[C@H]1O[C@H](CO)[C@@H](O)[C@H](N)[C@H]1O` [amikacin] here?
Answer: The value was “Resistant to”.

Question: Which results are given for `O=C(O)c1cn(Cc2ccc3ccccc3c2)c2ccccc12` [Compound 1b]?
Answer: activity toward bCSE (in words) [1]: did not show noticeable activity; IC50 [1, 11]: > 500 µM; IC50 [1, 7]: > 500 µM; IC50 [1, 9]: > 500 µM; activity toward hCSE (in words) [2]: did not show noticeable activity; IC50 ([2]; IC50 biochemical assay hCSE): > 500 µM; CC50 at 72 h [3]: 423 ± 71.8 µM

Question: Which “susceptibility of isolate (Sensitive to / Resistant to)” value [4] does the source give for `CO/N=C(\C(=O)N[C@@H]1C(=O)N2C(C(=O)O)=C(CSc3nc(=O)c(=O)[nH]n3C)CS[C@H]12)c1csc(N)n1` [ceftriaxone] here?
Answer: Its value is “Resistant to”.

Question: Which IC50 [1, 11] does the source give for `O=C(O)c1cc2ccccc2n1Cc1ccc2ccccc2c1` [Compound 2b] here?
Answer: Its IC50 is 71 µM.

Question: What about the IC50 [1, 7] of the same compound?
Answer: The IC50 was 71 µM.

Question: And the IC50 [1, 8]?
Answer: The IC50 was 71 µM.

Question: What about the IC50 [1, 9] of the same compound?
Answer: Its IC50 is 71.1 ± 4.2 µM.

Question: And the IC50 [2, 10]?
Answer: Its IC50 is 285 ± 14.6 µM.

Question: What about the CC50 at 72 h ([3]; HEK293 cells) of the same compound?
Answer: Its CC50 at 72 h is 368 ± 32.8 µM.

Question: For `C[C@@H](O)[C@H]1C(=O)N2C(C(=O)O)=C(S[C@@H]3CN[C@H](C(=O)N(C)C)C3)[C@H](C)[C@H]12` [Meropenem, meropenem], which “susceptibility of isolate (Sensitive to / Resistant to)” value [4] is on record?
Answer: The value was “Resistant to”.

Question: What about the “MIC of antibiotic alone” value [5] of the same compound?
Answer: Its value is 64 µg/mL.

Question: What about the “MIC of antibiotic alone” value [6] of the same compound?
Answer: The value was 16 µg/mL.

Question: With `CNC(C)C1CCC(N)C(OC2C(N)CC(N)C(OC3OCC(C)(O)C(NC)C3O)C2O)O1` (stereo not shown) [Gentamicin, gentamicin] as the compound, how does the “susceptibility of isolate (Sensitive to / Resistant to)” value [4] read?
Answer: Its value is “Resistant to”.

Question: And the “MIC of antibiotic alone” value [6]?
Answer: Its value is greater than 512 µg/mL.

Question: With `O=C(O)c1cccn1Cc1cccc2ccccc12` [Compound 5a] as the compound, how does the IC50 [1, 11] read?
Answer: Its IC50 is 289 µM.

Question: What about the IC50 [1, 7] of the same compound?
Answer: The IC50 was 289 µM.

Question: What about the IC50 [1, 8] of the same compound?
Answer: The IC50 was 289 µM.

Question: And the IC50 [1, 9]?
Answer: Its IC50 is 289 ± 30.4 µM.

Question: What about the IC50 [2, 10] of the same compound?
Answer: The IC50 was greater than 500 µM.

Question: And the CC50 at 72 h ([3]; HEK293 cells)?
Answer: The CC50 at 72 h was 460 ± 51.1 µM.

Question: Which “susceptibility of isolate (Sensitive to / Resistant to)” value [4] does the source give for `O=C(O)c1cn(C2CC2)c2cc(N3CCNCC3)c(F)cc2c1=O` [ciprofloxacin] here?
Answer: The value was “Resistant to”.

Question: What does the source list for `C#CC[C@H](N)C(=O)O` (racemic) [PAG, DL-propargylglycine, reference compound]?
Answer: Hill slope of dose-response curve toward bCSE [1]: approximately two; IC50 [1, 9]: 24.3 ± 0.7 µM; Hill slope of dose-response curve toward hCSE [2]: ~1.0; IC50 [2, 10]: 0.17 ± 0.02 µM

Question: Which “susceptibility of isolate (Sensitive to / Resistant to)” value [4] does the source give for `CCN1CCN(C(=O)N[C@@H](C(=O)N[C@@H]2C(=O)N3[C@@H]2SC(C)(C)[C@@H]3C(=O)O)c2ccccc2)C(=O)C1=O` [piperacillin] here?
Answer: The value was “Resistant to”.
